Read-outs that look alike come from different tables or passages of the source.
Experiments:
[1] = system: SNU-601 cells; experiment: SNU-601 cell proliferation experiment (CellTiter-Glo, intracellular ATP); assay type: cell-based; conditions: SNU-601 human gastric cancer cells, 5 days, read-out: IC50 for inhibition of SNU-601 cell proliferation
Method: The following method is used to evaluate the inhibitory effect of the compounds of the present disclosure on SNU-601 cell proliferation according to the IC50 values by means of detecting the intracellular ATP content. The experimental method is briefly described as follows:
1. SNU-601, human gastric cancer tumor cells (Co-bioer, CBP60507)
SNU-601 cells were cultured in RPMI 1640 medium containing 10% FBS and passaged 2 to 3 times a week at a split ratio of 1:5 or 1:10. During passage, the cells were trypsinized and transferred to a centrifuge tube. The tube was centrifuged at 1000 rpm for 5 minutes, the supernatant medium was discarded, and fresh medium was added to resuspend the cells. 195 μL of cell suspension at a density of 5.128×10^3 cells/mL was added to a 96-well cell culture plate, and 200 μL of complete medium only was added to the periphery wells of the 96-well plate. The culture plate was incubated in an incubator for 24 hours (37° C., 5% CO2).
The sample to be tested was diluted to 2 mM with DMSO, diluted 3-fold serially to 10 concentrations. Blank and control wells were set. 10 μL of the solution containing the compound to be tested prepared in gradient concentrations was added to 50 μL of fresh medium. 5 μL of the above culture medium solution containing the compound was added to the culture plate. The culture plate was incubated in an incubator for 5 days (37° C., 5% CO2). 50 μL of CellTiter-Glo reagent was added to each well of the 96-well cell culture plate after discarding 100 μL/well, and the plate was shaken at room temperature in the dark for 10 min. The chemiluminescent signal values were read in PHERAstar, and data were processed using GraphPad software.
The inhibitory effect of the compounds of the present invention on SNU-601 cell proliferation can be determined by the test described above, and the measured IC50 values are shown in Table 3.

[2] = target: ATR enzyme (Homo sapiens (Human), UniProt Q13535); experiment: Inhibitory effect on ATR enzyme (HTRF, phospho-P53); assay type: biochemical; conditions: 90 minutes incubation, 150 nM ATP final; read-out: IC50 for ATR enzyme inhibition
ATR enzyme, sequence (Q13535 whole entry): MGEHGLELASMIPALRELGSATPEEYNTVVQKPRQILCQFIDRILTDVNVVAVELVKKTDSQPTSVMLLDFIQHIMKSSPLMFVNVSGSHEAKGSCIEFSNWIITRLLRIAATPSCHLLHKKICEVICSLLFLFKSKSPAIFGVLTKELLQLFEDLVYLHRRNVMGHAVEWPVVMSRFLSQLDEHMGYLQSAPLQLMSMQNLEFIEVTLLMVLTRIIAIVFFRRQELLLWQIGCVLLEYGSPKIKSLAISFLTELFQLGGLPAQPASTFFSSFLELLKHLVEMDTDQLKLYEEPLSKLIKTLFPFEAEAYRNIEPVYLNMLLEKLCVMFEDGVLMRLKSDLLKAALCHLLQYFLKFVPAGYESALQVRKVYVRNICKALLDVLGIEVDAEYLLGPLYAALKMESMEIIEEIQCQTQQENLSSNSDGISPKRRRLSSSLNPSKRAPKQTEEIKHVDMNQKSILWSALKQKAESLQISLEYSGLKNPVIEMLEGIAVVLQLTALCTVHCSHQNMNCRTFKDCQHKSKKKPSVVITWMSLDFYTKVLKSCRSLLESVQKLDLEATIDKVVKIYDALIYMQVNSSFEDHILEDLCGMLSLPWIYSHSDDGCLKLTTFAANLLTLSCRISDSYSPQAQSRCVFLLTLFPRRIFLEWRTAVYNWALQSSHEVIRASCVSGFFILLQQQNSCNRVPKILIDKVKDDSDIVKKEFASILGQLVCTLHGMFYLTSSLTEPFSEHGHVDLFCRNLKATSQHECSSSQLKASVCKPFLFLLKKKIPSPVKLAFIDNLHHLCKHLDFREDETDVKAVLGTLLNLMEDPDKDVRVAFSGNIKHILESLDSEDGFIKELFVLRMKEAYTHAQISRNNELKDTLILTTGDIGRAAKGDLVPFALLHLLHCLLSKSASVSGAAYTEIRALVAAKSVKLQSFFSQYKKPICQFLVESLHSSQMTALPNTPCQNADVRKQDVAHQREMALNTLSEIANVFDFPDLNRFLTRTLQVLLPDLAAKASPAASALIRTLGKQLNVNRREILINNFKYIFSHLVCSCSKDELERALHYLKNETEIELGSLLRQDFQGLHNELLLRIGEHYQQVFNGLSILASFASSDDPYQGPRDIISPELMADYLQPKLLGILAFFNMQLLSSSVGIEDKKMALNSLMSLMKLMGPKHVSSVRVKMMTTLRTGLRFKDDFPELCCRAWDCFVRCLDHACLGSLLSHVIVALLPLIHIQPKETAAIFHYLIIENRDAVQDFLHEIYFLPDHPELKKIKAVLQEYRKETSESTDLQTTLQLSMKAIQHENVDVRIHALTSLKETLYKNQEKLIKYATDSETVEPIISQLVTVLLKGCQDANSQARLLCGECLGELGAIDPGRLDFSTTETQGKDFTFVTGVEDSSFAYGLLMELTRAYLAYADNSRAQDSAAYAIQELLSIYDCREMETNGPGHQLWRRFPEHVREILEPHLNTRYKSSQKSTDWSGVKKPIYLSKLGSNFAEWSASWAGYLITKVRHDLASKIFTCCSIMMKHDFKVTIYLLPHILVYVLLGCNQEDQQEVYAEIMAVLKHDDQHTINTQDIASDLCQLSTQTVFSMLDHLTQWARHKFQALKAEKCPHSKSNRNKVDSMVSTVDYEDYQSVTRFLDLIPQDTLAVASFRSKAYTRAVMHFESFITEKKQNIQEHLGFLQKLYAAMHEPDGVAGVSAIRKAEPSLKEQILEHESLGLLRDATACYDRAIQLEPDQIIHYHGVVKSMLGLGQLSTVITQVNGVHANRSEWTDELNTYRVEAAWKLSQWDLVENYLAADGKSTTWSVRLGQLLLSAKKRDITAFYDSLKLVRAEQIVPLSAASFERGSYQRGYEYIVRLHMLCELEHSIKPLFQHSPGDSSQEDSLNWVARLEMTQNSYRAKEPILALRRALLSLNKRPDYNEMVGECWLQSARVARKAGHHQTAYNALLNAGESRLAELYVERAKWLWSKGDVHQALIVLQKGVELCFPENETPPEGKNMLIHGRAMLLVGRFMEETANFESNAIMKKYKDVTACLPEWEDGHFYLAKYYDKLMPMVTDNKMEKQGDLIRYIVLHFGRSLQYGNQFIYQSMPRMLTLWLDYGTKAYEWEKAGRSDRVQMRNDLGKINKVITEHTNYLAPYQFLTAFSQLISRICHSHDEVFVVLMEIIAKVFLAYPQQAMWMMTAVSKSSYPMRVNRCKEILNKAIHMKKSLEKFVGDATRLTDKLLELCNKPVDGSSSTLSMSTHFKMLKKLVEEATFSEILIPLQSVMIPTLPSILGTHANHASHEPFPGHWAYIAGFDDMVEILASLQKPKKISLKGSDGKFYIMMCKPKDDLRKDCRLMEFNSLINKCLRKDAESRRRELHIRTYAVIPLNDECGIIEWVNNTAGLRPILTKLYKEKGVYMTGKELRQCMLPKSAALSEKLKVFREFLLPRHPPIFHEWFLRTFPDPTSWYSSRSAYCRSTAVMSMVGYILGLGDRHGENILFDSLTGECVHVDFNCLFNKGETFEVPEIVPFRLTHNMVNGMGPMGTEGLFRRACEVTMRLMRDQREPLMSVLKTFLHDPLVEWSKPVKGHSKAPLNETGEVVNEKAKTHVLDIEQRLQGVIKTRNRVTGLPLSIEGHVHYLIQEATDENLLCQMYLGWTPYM
ATR enzyme, sequence (Q8WXE1 whole entry partner): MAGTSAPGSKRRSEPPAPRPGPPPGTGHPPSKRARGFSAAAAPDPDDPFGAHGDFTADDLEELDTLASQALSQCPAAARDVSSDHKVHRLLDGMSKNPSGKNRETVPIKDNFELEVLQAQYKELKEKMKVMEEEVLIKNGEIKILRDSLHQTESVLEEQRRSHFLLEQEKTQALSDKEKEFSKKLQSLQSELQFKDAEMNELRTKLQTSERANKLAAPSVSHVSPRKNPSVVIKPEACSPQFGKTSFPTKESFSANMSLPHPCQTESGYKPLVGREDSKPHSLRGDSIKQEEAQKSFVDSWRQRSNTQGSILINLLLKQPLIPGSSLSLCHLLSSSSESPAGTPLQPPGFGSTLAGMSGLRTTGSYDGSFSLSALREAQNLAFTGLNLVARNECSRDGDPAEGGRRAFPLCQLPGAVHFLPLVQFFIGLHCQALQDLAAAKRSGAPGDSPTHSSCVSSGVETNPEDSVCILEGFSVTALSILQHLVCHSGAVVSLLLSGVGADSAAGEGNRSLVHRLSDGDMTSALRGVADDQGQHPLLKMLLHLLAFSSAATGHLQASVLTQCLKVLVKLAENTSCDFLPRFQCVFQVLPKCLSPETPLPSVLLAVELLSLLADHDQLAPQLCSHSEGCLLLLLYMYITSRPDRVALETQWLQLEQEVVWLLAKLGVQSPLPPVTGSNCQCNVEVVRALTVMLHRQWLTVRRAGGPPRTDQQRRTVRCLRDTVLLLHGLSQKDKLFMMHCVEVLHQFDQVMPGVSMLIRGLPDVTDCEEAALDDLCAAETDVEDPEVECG
Method: Test Example 1. Inhibitory Effect of Compounds of the Present Invention on ATR Enzyme
The following method is used to determine the inhibitory effect of the compounds of the present invention on the ATR enzyme. The experimental method is briefly described as follows:
1. ATR enzyme (Eurofins Pharma Discovery Services, 14-953M)
2. GST-tagged P53 protein (Eurofins Pharma Discovery Services, 14-952M)
15 nM ATR enzyme, 80 nM P53 protein, 300 nM ATP (the final concentrations were 40 nM and 150 nM, respectively), and small molecule compounds of various concentrations (the final concentrations (nM) of the ten points were 2985.0, 895.5, 298.5, 110.56, 33.17, 11.06, 4.09, 1.23, 0.41 and 0.15, respectively, and the final dimethyl sulfoxide concentration was 0.498%) were mixed and incubated at room temperature for 90 minutes. 10 μL of 2× cocktail buffer was added to the mixture of ATR, compound and substrate in the assay plate (anti-phospho-p53-Eu and anti-GST-d2 were diluted in the assay buffer). The resulting mixture was centrifuged at 1000 rpm for 30 seconds, and incubated overnight at 4° C. in the dark (a total of 20 μl in each well). The FRET signal (endpoint) was measured in the Envision instrument (HTRF 665/612 ratio was calculated at 665 nm emission and 612 nm emission). Data were processed using GraphPad software.
The inhibitory activity of the compounds of the present invention on the ATR enzyme can be determined by the test described above, and the measured IC50 values are shown in Table 1.

| SMILES | IC50 [1] [µM] | IC50 [2] [µM] | IC50 ([1]; 120 h) [µM] |
| --- | --- | --- | --- |
| C[C@@H]1COCCN1c1cc(-c2ccc(NC(=O)C3CC(O)C3)cc2)c2cnn(-c3cc[nH]n3)c2n1 (stereo partly shown) [Example 160] | 0.01 to 0.1 | ≤ 0.01 |  |
| CC(=O)N1CCCC(C(=O)Nc2ccc(-c3cc(N4CCOC[C@H]4C)nc4c3cnn4-c3cc[nH]n3)cc2)C1 (stereo partly shown) [Example 162] | 0.01 to 0.1 | ≤ 0.01 |  |
| Cc1cc(N2CCCCC2=O)ccc1-c1cc(N2CCOC[C@H]2C)nc2c1cnn2-c1cc[nH]n1 [Example 168] | 0.01 to 0.1 | ≤ 0.01 |  |
| C[C@@H]1COCCN1c1cc(-c2ccc(NC(=O)c3cccs3)cc2)c2cnn(-c3cc[nH]n3)c2n1 [Example 172] | 0.01 to 0.1 | ≤ 0.01 |  |
| C[C@@H]1COCCN1c1cc(-c2ccc(N3CC4CCC(O4)C3=O)c(F)c2)c2cnn(-c3cc[nH]n3)c2n1 (stereo partly drawn) [Example 200, 3-(2-fluoro-4-(6-((R)-3-methylmorpholino)-1-(1H-pyrazol-3-yl)-1H-pyrazolo[3,4-b]pyridin-4-yl)phenyl)-8-oxa-3-azabicyclo[3.2.1]octan-2-one] |  | ≤ 0.01 | 0.01 to 0.1 |
| C[C@@H]1COCCN1c1cc(C2(C#N)CCN(c3cccc(F)c3)CC2)c2cnn(-c3cc[nH]n3)c2n1 [Example 208] | 0.01 to 0.1 | ≤ 0.01 |  |
| C[C@@H]1COCCN1c1cc(-c2ccc(NC(=O)c3cccnc3)cc2)c2cnn(-c3cc[nH]n3)c2n1 [Example 214] | 0.01 to 0.1 | ≤ 0.01 |  |
| CCN1CCN(c2ccc(-c3cc(N4CCOC[C@H]4C)nc4c3cnn4-c3cc[nH]n3)cc2)C1=O [Example 216] | 0.01 to 0.1 | ≤ 0.01 |  |
| C[C@@H]1COCCN1c1cc(-c2ccc(NC(=O)C3CC3)cc2)c2cnn(-c3cc[nH]n3)c2n1 [Example 218] |  | ≤ 0.01 | 0.01 to 0.1 |
| C[C@@H]1COCCN1c1cc(-c2ccc(NC(=O)N3CCNCC3)cc2)c2cnn(-c3cc[nH]n3)c2n1 [Example 219] |  | ≤ 0.01 | 0.01 to 0.1 |
| CCn1ccn(-c2ccc(-c3cc(N4CCOC[C@H]4C)nc4c3cnn4-c3cc[nH]n3)cc2)c1=O [Example 222] |  | ≤ 0.01 | 0.01 to 0.1 |
| C[C@@H]1COCCN1c1cc(-c2ccc(N3CCCCC3=O)cc2C#N)c2cnn(-c3cc[nH]n3)c2n1 [Example 224] |  | ≤ 0.01 | 0.01 to 0.1 |
| Cc1cc(-c2cc(N3CCOC[C@H]3C)nc3c2cnn3-c2cc[nH]n2)ccc1NC(=O)N1CCCC1 [Example 226] |  | ≤ 0.01 | 0.01 to 0.1 |
| CCC(=O)Nc1ccc(-c2cc(N3CCOC[C@H]3C)nc3c2cnn3-c2cc[nH]n2)c(F)c1 [Example 233] |  | ≤ 0.01 | 0.01 to 0.1 |
| C[C@@H]1COCCN1c1cc(-c2ccc(NC(=O)C3CC3)cc2F)c2cnn(-c3cc[nH]n3)c2n1 [Example 234] |  | ≤ 0.01 | 0.01 to 0.1 |
| C[C@@H]1COCCN1c1cc(-c2ccc(NC(=O)C(F)F)cc2F)c2cnn(-c3cc[nH]n3)c2n1 [Example 236] |  | ≤ 0.01 | 0.01 to 0.1 |
| C[C@@H]1COCCN1c1cc(-c2ccc(N3CC4CCC(O4)C3=O)cn2)c2cnn(-c3cc[nH]n3)c2n1 (stereo partly shown) [Example 237] |  | ≤ 0.01 | 0.01 to 0.1 |
| C[C@@H]1COCCN1c1cc(-c2ccc(N3CCCCC3=O)cc2F)c2cnn(-c3cc[nH]n3)c2n1 [Example 238] |  | ≤ 0.01 | 0.01 to 0.1 |

| SMILES | IC50 [1] [µM] | IC50 [2] [µM] | IC50 ([1]; 120 h) [µM] |
| --- | --- | --- | --- |
| C[C@@H]1COCCN1c1cc(-c2c(F)cc(N3CCCCC3=O)cc2F)c2cnn(-c3cc[nH]n3)c2n1 [Example 240] |  | ≤ 0.01 | 0.01 to 0.1 |
| CC1CCCN(c2cc(F)c(-c3cc(N4CCOC[C@H]4C)nc4c3cnn4-c3cc[nH]n3)c(F)c2)C1=O (stereo partly shown) [Example 241] |  | ≤ 0.01 | 0.01 to 0.1 |
| C[C@@H]1COCCN1c1cc(-c2ccc(N3CC=CCC3=O)cc2F)c2cnn(-c3cc[nH]n3)c2n1 [Example 243] |  | ≤ 0.01 | 0.01 to 0.1 |
| C[C@@H]1COCCN1c1cc(-c2ccc(NC(=O)N3CCCCC3)c(F)c2)c2cnn(-c3cc[nH]n3)c2n1 [Example 244] |  | ≤ 0.01 | 0.01 to 0.1 |
| C[C@@H]1COCCN1c1cc(-c2ccc(NC(=O)N3CCCC3)cc2F)c2cnn(-c3cc[nH]n3)c2n1 [Example 245] |  | ≤ 0.01 | 0.01 to 0.1 |
| CC1CCCN1C(=O)Nc1ccc(-c2cc(N3CCOC[C@H]3C)nc3c2cnn3-c2cc[nH]n2)cc1 (stereo partly shown) [Example 246] |  | ≤ 0.01 | 0.01 to 0.1 |
| C[C@@H]1COCCN1c1cc(-c2ccc(NC(=O)N3CCCC3)nc2)c2cnn(-c3cc[nH]n3)c2n1 [Example 250] |  | ≤ 0.01 | 0.01 to 0.1 |
| Cc1cc(NC(=O)N2CCCC2)cc(C)c1-c1cc(N2CCOC[C@H]2C)nc2c1cnn2-c1cc[nH]n1 [Example 251] |  | ≤ 0.01 | 0.01 to 0.1 |
| Cc1cc(N2CC3CCC(O3)C2=O)ccc1-c1cc(N2CCOC[C@H]2C)nc2c1cnn2-c1cc[nH]n1 (stereo partly shown) [Example 254] |  | ≤ 0.01 | 0.01 to 0.1 |
| C[C@@H]1COCCN1c1cc(-c2ccc(N3CC4CCC(O4)C3=O)nc2)c2cnn(-c3cc[nH]n3)c2n1 (stereo partly shown) [Example 255] |  | ≤ 0.01 | 0.01 to 0.1 |
| Cc1cc(-c2cc(N3CCOC[C@H]3C)nc3c2cnn3-c2cc[nH]n2)ccc1N1CC2CCC(O2)C1=O (stereo partly shown) [Example 256] |  | ≤ 0.01 | 0.01 to 0.1 |
| C[C@@H]1COCCN1c1cc(-c2cnc(N3CC4CCC(O4)C3=O)cc2F)c2cnn(-c3cc[nH]n3)c2n1 (stereo partly shown) [Example 257] |  | ≤ 0.01 | 0.01 to 0.1 |
| C[C@@H]1COCCN1c1cc(-c2cc(NC(=O)C3CC3)on2)c2cnn(-c3cc[nH]n3)c2n1 [Example 260] |  | ≤ 0.01 | 0.01 to 0.1 |
| C[C@@H]1COCCN1c1cc(-c2ccc(N3C(=O)C4C=CC3C4)cc2F)c2cnn(-c3cc[nH]n3)c2n1 (stereo partly shown) [Example 262] |  | ≤ 0.01 | 0.01 to 0.1 |
| C[C@@H]1COCCN1c1cc(-c2ccc(N3C(=O)C4CCC3C4)cc2F)c2cnn(-c3cc[nH]n3)c2n1 (stereo partly shown) [Example 263] |  | ≤ 0.01 | 0.01 to 0.1 |
| C[C@@H]1COCCN1c1cc(-c2ccc(N3C(=O)C4CCC3CC4)cc2F)c2cnn(-c3cc[nH]n3)c2n1 [Example 264] |  | ≤ 0.01 | 0.01 to 0.1 |
| C[C@@H]1COCCN1c1cc(N2CC(NC(=O)C3CCC3)C2)c2cnn(-c3cc[nH]n3)c2n1 [Example 265] |  | 0.01 to 0.05 | 0.01 to 0.1 |
